# Laboratory results reported in ChEMBL document CHEMBL1146241, “Novel inhibitor for fibroblast growth factor receptor tyrosine kinase” (Bioorg Med Chem Lett, 2007).
# Experiments:
# [1] = target: T1, Fibroblast growth factor receptor 1 (Homo sapiens, UniProt P11362); test: Inhibition of human FGFR1 kinase expressed in insect cell by HTRF detection method
# Target sequence in this assay (P11362 whole entry): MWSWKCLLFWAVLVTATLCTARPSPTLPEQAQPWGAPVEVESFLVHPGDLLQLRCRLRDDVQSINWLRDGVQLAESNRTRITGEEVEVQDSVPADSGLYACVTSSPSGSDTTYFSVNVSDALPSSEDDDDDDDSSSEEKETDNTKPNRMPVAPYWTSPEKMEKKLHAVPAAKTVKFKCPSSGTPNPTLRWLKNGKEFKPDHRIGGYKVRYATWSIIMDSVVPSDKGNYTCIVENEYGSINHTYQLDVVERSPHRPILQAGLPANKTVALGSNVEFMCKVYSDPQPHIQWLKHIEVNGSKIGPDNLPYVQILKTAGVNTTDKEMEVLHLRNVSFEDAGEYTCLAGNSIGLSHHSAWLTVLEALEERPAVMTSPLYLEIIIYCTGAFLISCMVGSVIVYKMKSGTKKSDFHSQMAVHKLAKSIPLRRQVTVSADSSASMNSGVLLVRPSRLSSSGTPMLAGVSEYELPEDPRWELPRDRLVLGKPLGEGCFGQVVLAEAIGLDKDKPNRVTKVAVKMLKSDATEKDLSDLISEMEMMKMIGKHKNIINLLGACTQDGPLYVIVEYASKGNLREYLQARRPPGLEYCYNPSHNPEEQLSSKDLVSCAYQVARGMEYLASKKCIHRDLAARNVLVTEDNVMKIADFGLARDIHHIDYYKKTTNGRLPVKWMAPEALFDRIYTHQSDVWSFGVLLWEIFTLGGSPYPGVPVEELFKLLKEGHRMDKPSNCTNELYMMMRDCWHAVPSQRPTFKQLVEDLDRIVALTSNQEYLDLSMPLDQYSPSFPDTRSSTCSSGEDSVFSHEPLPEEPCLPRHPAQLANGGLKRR
# [2] = target: T1, Fibroblast growth factor receptor 1; conditions: HUVEC
# Target sequence in this assay (P11362 22-822 limits assumed): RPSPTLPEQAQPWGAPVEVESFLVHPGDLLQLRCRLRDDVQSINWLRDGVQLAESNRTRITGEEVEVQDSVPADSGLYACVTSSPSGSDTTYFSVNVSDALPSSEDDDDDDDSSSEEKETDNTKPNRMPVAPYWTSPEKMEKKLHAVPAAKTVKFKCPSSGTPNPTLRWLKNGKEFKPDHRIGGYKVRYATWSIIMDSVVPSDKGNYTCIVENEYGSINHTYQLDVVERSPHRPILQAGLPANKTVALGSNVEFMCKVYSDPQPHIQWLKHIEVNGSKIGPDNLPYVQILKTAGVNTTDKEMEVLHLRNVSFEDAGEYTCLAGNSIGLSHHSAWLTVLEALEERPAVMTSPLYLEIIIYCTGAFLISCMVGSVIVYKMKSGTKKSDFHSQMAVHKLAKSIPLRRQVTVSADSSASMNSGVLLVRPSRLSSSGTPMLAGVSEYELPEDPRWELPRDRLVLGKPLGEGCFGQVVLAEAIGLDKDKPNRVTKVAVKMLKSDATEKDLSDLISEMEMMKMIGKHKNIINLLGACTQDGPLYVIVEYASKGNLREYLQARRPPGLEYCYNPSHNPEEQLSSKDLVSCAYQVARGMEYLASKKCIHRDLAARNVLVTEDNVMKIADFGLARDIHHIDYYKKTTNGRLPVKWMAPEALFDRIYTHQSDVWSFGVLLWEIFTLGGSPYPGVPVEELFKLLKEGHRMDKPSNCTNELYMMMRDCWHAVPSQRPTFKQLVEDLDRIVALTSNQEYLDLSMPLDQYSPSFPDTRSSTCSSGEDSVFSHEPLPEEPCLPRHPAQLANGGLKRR
# Description: Inhibition of rhFGF2-induced cellular proliferation of HUVEC
IC50 [1],MEC [2],SMILES
400 nM,0.4 µM,COc1cc(OC)cc(-c2ccc3c(c2)NC(=O)/C3=C\c2[nH]c(C)c(CCC(=O)O)c2C)c1
,10 µM,Cc1[nH]c(/C=C2\C(=O)Nc3ccccc32)c(C)c1CCC(=O)O
1200 nM,0.4 µM,COc1cccc(-c2ccc3c(c2)NC(=O)/C3=C\c2[nH]c(C)c(CCC(=O)O)c2C)c1
